The source of these data is PubChem BioAssay AID1896 (NMMLSC, 2009).

Calls of active or inactive are those of the source. How the calls were made is not given here.

Chain of Mitogen-activated protein kinase kinase kinase 3 (Homo sapiens) (Q99759 whole entry, looked up): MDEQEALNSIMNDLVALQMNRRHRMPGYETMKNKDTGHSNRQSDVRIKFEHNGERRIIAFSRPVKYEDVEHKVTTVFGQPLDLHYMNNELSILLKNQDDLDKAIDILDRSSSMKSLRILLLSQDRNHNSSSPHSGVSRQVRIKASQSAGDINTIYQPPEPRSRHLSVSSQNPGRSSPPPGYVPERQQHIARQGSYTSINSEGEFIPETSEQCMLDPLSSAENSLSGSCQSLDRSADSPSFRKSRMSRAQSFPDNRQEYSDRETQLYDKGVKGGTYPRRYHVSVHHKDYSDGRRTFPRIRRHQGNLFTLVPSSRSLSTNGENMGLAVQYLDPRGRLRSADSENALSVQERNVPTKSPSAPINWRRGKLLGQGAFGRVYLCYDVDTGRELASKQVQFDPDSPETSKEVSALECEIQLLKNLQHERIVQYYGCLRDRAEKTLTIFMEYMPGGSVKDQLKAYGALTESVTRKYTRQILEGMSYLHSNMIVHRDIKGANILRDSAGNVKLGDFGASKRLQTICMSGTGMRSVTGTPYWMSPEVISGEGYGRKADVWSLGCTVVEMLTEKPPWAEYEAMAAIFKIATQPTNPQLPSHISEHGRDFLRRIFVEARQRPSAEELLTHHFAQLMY

The first assay addresses Mitogen-activated protein kinase kinase kinase 3 (Homo sapiens) (UniProt Q99759). Nature of the assay: inhibitors of MEK5 binding to MEKK3, dose response, biochemical, bead multiplex flow cytometry, wildtype (AID 1896). To be noted: bead-based multiplex flow cytometry, MEK5-MEKK3 PB1 binding.
Regarding `CCCCN(CC)CCNC(=O)c1cc2c(-c3ccc(Cl)cc3)nn(C)c2s1`, the EC50 (as a rule, the concentration needed to bring the measured effect to its halfway point) is > 30 µM (inactive).

Regarding `CN(C)CCCN(C(=O)c1ccc2c(c1)CCCC2)c1nc2ccc(Cl)cc2s1`, the EC50 was > 30 µM (inactive).

With `Cc1cc2cc(CNC(=O)NC3CCCCC3)ccc2[nH]1`, the EC50 is 3.98 µM.

For the compound `C#CCOCCOCCOCCNc1nc(N2CCN(C(=O)C(Cc3ccc(O)cc3)n3cc(C(N)CC(C)C)nn3)CC2)nc(N2CCN(C(=O)C(Cc3cc4ccccc4[nH]3)n3cc(C(N)Cc4ccc(O)cc4)nn3)CC2)n1` (centres undefined), the EC50 was > 30 µM (inactive).

Regarding `O=C1Nc2ccc(Br)cc2/C1=N/N=C/C1=C(N2CCOCC2)C(=C\c2ccccc2)/CC1`, the EC50 was 1.76 µM.

In the case of `CN1CCN(CC(=O)N2CCn3c4c(c5cc(C6CCCCC6)ccc53)CCCC42)CC1` (centres undefined), the EC50 is > 30 µM (inactive).

In the case of `CCCCCc1cc(=O)oc2c(C(CCN3CCCC(C)C3)c3ccc4c(c3)OCO4)c(OC)cc(OC)c12` (centres undefined), the EC50 was > 30 µM (inactive).

As for `C#CCOCCOCCOCCNc1nc(N2CCN(C(=O)[C@H](Cc3ccc(O)cc3)n3cc([C@@H](N)CC(C)C)nn3)CC2)nc(N2CCN(C(=O)[C@H](Cc3ccc(O)cc3)n3cc([C@@H](N)CC(C)C)nn3)CC2)n1`, the EC50 was > 30 µM (inactive).

`CCc1ccc(-c2nn(-c3ccccc3)cc2CSC(=N)N)cc1`: the EC50 was > 30 µM (inactive).

Regarding `CCN1CCN(Cc2ccc(NC(=O)c3ccc(C)c(NC(=O)C(=O)c4c[nH]c5ccccc45)c3)cc2C(F)(F)F)CC1`, the EC50 is > 30 µM (inactive).

For `C/C(=N\NC(=O)c1cc(O)cc(O)c1)c1ccc(NC(=O)Cc2ccccc2)cc1`, the EC50 was > 30 µM (inactive).

For `O=C(CCCC(=O)N(CC(=O)NC1CCCC1)C1CCCC1)Nc1ccccn1`, the EC50 was > 30 µM (inactive).

For `CCN(Cc1ccccc1)S(=O)(=O)c1ccc(C(=O)N(CCCN(C)C)c2nc3ccc(F)cc3s2)cc1`, the EC50 was > 30 µM (inactive).

On to `COc1ccc(/C=N/Nc2cc(C)nc3ccc(Br)cc23)cc1`, for which the EC50 is > 30 µM (inactive).

As for `CCCSc1ncnc2sc(C)c(C)c12`, the EC50 was > 30 µM (inactive).

Turning to `COc1ccc(CNC[C@@H](CCCCN(C)Cc2ccc(OC)cc2)N2C[C@H](c3ccccc3)N(CCc3ccc(Cl)c(Cl)c3)C(=O)C2=O)cc1`, the EC50 is > 30 µM (inactive).

Take `Cc1cc2ccccc2n1CCNC(=O)c1ccc(Br)o1`: the EC50 was 11.9 µM.

For the compound `CCN1/C(=C/C(C)=C/c2sc3ccccc3[n+]2CC)Sc2ccccc21`, the EC50 was 1.01 µM.

In the case of `N=C(N)SCc1cn(-c2ccccc2)nc1-c1ccc(Br)cc1`, the EC50 is > 30 µM (inactive).

With `C=CC#CC[N+]1(CC#Cc2ccccc2)CCOCC1`, the EC50 was > 30 µM (inactive).

In the case of `COc1ccc(C2NCCc3c2[nH]c2ccccc32)cc1CN1CCc2cc(OC)c(OC)cc2C1C` (centres undefined), the EC50 was > 30 µM (inactive).

In the case of `CCn1cc(C(=O)O)c(=O)c2cc(F)c(N3CCN(C(=S)NC(=O)c4ccc(Br)cc4)CC3)cc21`, the EC50 is > 30 µM (inactive).

For `Cc1cc(N=Nc2ccc(C)c(N=Nc3cc(C)c(N)cc3N)c2)c(N)cc1N`, the EC50 is > 30 µM (inactive).

`CCN1C(c2ccccc2)=C(c2ccccc2)S/C1=C\C=C1/SC(=S)N(C)C1=O`: the 50% effective concentration (EC50) is 3.93 µM.

Take `COc1ccc(C(CCNCc2ccc(OC(C)C)cc2)c2ccccc2OC)cc1` (centres undefined): the EC50 was > 30 µM (inactive).

Regarding `COc1cc2nc(N3CCN(c4cc(C)ccc4C)CC3)nc(N)c2cc1OC`, the EC50 was > 30 µM (inactive).

Regarding `Cc1cc2ccccc2n1CCNC(=O)c1ccccc1`, the EC50 was 5.57 µM.

Regarding `CCN1CCN(Cc2ccc(NC(=O)c3cc(NC(=O)c4cncc(-c5cccs5)c4)cc(OC)c3)cc2C(F)(F)F)CC1`, the EC50 was > 30 µM (inactive).

As to `CC(=O)c1c(C)[nH]c(C(=O)NC2=NCCS2)c1C`, the EC50 is > 30 µM (inactive).

Regarding `COc1ccc(-c2cc(C#N)nc(N3CCNCC3)n2)cc1`, the EC50 was > 30 µM (inactive).

In the case of `CN1CCN(CC(O)COc2ccc(C34CC5CC(CC(C5)C3)C4)cc2)CC1` (centres undefined), the EC50 is > 30 µM (inactive).

In the case of `CCOC(=O)C(C(=O)OCC)c1cc(Br)c2noc3c2c1C(=O)c1ccccc1-3`, the EC50 is > 30 µM (inactive).

For the compound `NC(=O)CSc1nnc(Cc2ccc3c(c2)OCO3)o1`, the EC50 is > 30 µM (inactive).

As to `NC(N)=N/N=C/c1ccc(OCc2ccc(Cl)cc2Cl)cc1`, the EC50 is > 30 µM (inactive).

Consider `C#CCOCCOCCOCCNc1nc(N2CCN(C(=O)[C@H](Cc3ccc(O)cc3)n3cc([C@@H](N)C(C)CC)nn3)CC2)nc(N2CCN(C(=O)[C@H](Cc3cc4ccccc4[nH]3)n3cc([C@@H](N)Cc4ccc(O)cc4)nn3)CC2)n1` (some centres undefined), for which the EC50 was > 30 µM (inactive).

`COC(=O)c1c(C)oc(C)c1S(=O)(=O)N(Cc1ccccc1)C(C)C`: the EC50 was > 30 µM (inactive).

As to `CN(C)c1ccc(NC(=O)CN2CCC(O)(c3ccccc3)CC2)cc1`, the EC50 was > 30 µM (inactive).

As to `CCCCCCCCCC[N+](C)(C)CC/C=C1/c2ccccc2Sc2ccc(Cl)cc21`, the EC50 is > 30 µM (inactive).

`COc1ccc(-c2[nH]ncc2CN2CCCCCCC2)c(OC)c1`: the EC50 was > 30 µM (inactive).

In the case of `C#CCOCCOCCOCCNc1nc(N2CCN(C(=O)C(Cc3ccc(O)cc3)n3cc(C(N)CC(C)C)nn3)CC2)nc(N2CCN(C(=O)C(Cc3cc4ccccc4[nH]3)n3cc(C(N)C(C)CC)nn3)CC2)n1` (centres undefined), the EC50 was > 30 µM (inactive).

For `Cc1cc2ccccc2n1CCNC(=O)c1cccs1`, the EC50 was > 30 µM (inactive).

With `COc1cc(/C=N/NC(=O)c2cc3ccccc3cc2O)ccc1OCCN1CCCCC1`, the EC50 is > 30 µM (inactive).

In the case of `C#CCOCCOCCOCCNc1nc(N2CCN(C(=O)C(Cc3cc4ccccc4[nH]3)n3cc(C(N)C(C)CC)nn3)CC2)nc(N2CCN(C(=O)C(Cc3cc4ccccc4[nH]3)n3cc(C(N)C(C)CC)nn3)CC2)n1` (centres undefined), the EC50 is > 30 µM (inactive).

On to `S=c1[nH]nc(-c2ccc(Cl)cc2)n1-c1ccc2c(c1)OCCO2`, for which the EC50 is > 30 µM (inactive).

Consider `CCCCCCCCCCOC(=O)Cn1c(COc2ccc(C)cc2)[n+](C)c2ccccc21`, for which the EC50 is > 30 µM (inactive).

With `CCCCCCCCCCCCCCCC[n+]1cccc2ccccc21`, the EC50 was > 30 µM (inactive).

On to `COc1ccc(Cn2cc3c(-c4ccc(F)cc4)nnc-3c3cc(OC)c(OC)cc32)cc1`, for which the EC50 was > 30 µM (inactive).

For the compound `Cc1nc(N)sc1-c1csc(Nc2ncccn2)n1`, the EC50 is > 30 µM (inactive).

Turning to `c1ccc(CNc2nc(NCc3ccccc3)c3ccccc3n2)cc1`, the EC50 is > 30 µM (inactive).

On to `CN1CCN(c2ccc(NC(=O)c3ccc(-c4ccc(Cl)cc4)o3)cc2)CC1`, for which the concentration for a half-maximal effect (EC50) is 2.68 µM.

For `Nc1ccc(Nc2ccccc2N)cc1`, the EC50 is 21.1 µM.

As to `CC[C@@H](C)[C@H](CNC)NC[C@@H](Cc1cccc2ccccc12)NCCc1cccc(C(F)(F)F)c1`, the EC50 is > 30 µM (inactive).

On to `CCC(/C=C1\Sc2ccc(OC)cc2N1CCO)=C\c1sc2ccc(OC)cc2[n+]1CCO`, for which the EC50 was 2.83 µM.

For the compound `COc1ccc2nc(C)cc(N/N=C/c3cccc(OC)c3O)c2c1`, the EC50 was > 30 µM (inactive).

Regarding `C#CCOCCOCCOCCNc1nc(N2CCN(C(=O)[C@H](Cc3cc4ccccc4[nH]3)n3cc([C@@H](N)C(C)CC)nn3)CC2)nc(N2CCN(C(=O)[C@H](Cc3cc4ccccc4[nH]3)n3cc([C@@H](N)CC(C)C)nn3)CC2)n1` (some centres undefined), the EC50 is > 30 µM (inactive).

Consider `CC(C)n1cc(CN2CCC(C(=O)Nc3cccc(-c4cccc(Cl)c4)c3)CC2)cn1`, for which the EC50 was > 30 µM (inactive).

Regarding `C#CCOCCOCCOCCNc1nc(N2CCN(C(=O)[C@H]([C@@H](C)CC)n3cc([C@@H](N)CC(C)C)nn3)CC2)nc(N2CCN(C(=O)[C@H](Cc3cc4ccccc4[nH]3)n3cc([C@@H](N)Cc4ccc(O)cc4)nn3)CC2)n1`, the EC50 was > 30 µM (inactive).

For the compound `CCN(CC)CCOC(=O)c1ccc(N/C=C(/C#N)c2nc(-c3ccc(OC)cc3)cs2)cc1`, the EC50 was > 30 µM (inactive).

Turning to `CCN1CCN(Cc2ccc(NC(=O)c3cc(NC(=O)c4cnn(-c5ccccc5)c4N)cc(OC)c3)cc2C(F)(F)F)CC1`, the EC50 is > 30 µM (inactive).

In the case of `CCCCCCCCCCOC(=O)Cn1c(COc2ccccc2C)[n+](C)c2ccccc21`, the EC50 was > 30 µM (inactive).

Take `CC(=O)Nc1cccc2c1C(=O)N(c1cccc(C)c1)C2=O`: the EC50 was > 30 µM (inactive).

As to `Cc1sc(NC(=O)c2ccccc2)c(C(c2ccccn2)N2CCN(CCO)CC2)c1C` (centres undefined), the EC50 is > 30 µM (inactive).

For `CCOC(=O)c1c(-c2ccc(-c3ccccc3)cc2)csc1NC(=O)CNCCN(C)C`, the EC50 was > 30 µM (inactive).

`CCN1CCN(CCNC(=O)c2ccc(/C=C3/Sc4ccccc4N(Cc4cccc(Cl)c4)C3=O)cc2)CC1`: the EC50 was > 30 µM (inactive).

Consider `CCN1/C(=C/c2ccc3cc(C)ccc3[n+]2C)Sc2ccc3sccc3c21`, for which the EC50 is > 30 µM (inactive).

On to `CSc1cccc(NC(=S)N(CCCN2CCCC2)Cc2cccn2Cc2ccc(Cl)cc2)c1`, for which the EC50 was > 30 µM (inactive).

Regarding `COc1ccc(NC(=O)N(Cc2cc3cc(C)ccc3[nH]c2=O)CC2CCCO2)cc1` (centres undefined), the EC50 is > 30 µM (inactive).

Take `CCOC(=O)c1c(CSC(=N)N)n(-c2ccc(C)cc2)c2cc(Br)c(OC(C)=O)cc12`: the EC50 is > 30 µM (inactive).

For the compound `C#CCOCCOCCOCCNc1nc(N2CCN(C(=O)[C@H](CCCCN)n3cc([C@@H](N)CC(C)C)nn3)CC2)nc(N2CCN(C(=O)[C@H](Cc3cc4ccccc4[nH]3)n3cc([C@@H](N)Cc4ccc(O)cc4)nn3)CC2)n1`, the EC50 is > 30 µM (inactive).

In the case of `S=C(Nc1cccc(Cl)c1)N(CCCN1CCCC1)Cc1cccn1Cc1ccc(Cl)cc1`, the EC50 is > 30 µM (inactive).

The assay is the same for the next values; noted with them: bead-based multiplex flow cytometry, MEK5-MEKK3 PB1 binding; measured here: Ki from EC50.
Take `Cc1cc2cc(CNC(=O)NC3CCCCC3)ccc2[nH]1`: the Ki (as a rule, a measure of affinity in units of concentration, obtained from inhibition or displacement) amounted to 3.41 µM.

In the case of `O=C1Nc2ccc(Br)cc2/C1=N/N=C/C1=C(N2CCOCC2)C(=C\c2ccccc2)/CC1`, the Ki turned out to be 1.5 µM.

Compound `Cc1cc2ccccc2n1CCNC(=O)c1ccc(Br)o1` showed a Ki of 10.1 µM.

For `CCN1/C(=C/C(C)=C/c2sc3ccccc3[n+]2CC)Sc2ccccc21`, the Ki was determined as 0.86 µM.

On to `CCN1C(c2ccccc2)=C(c2ccccc2)S/C1=C\C=C1/SC(=S)N(C)C1=O`, for which the Ki was determined as 3.36 µM.

`Cc1cc2ccccc2n1CCNC(=O)c1ccccc1` yielded a Ki of 4.77 µM.

With `CN1CCN(c2ccc(NC(=O)c3ccc(-c4ccc(Cl)cc4)o3)cc2)CC1`, the Ki was determined as 2.29 µM.

`Nc1ccc(Nc2ccccc2N)cc1`: the inhibition constant Ki worked out at 18.1 µM.

For the compound `CCC(/C=C1\Sc2ccc(OC)cc2N1CCO)=C\c1sc2ccc(OC)cc2[n+]1CCO`, the inhibition constant (Ki) is 2.42 µM.
